For one series, the system named is HCT116. In words: MTS antiproliferative assay, HCT116 (with or without added metal ions). Format: cell-based, human. The note with it: for Selectivity index, calculated for HCT116: versus NHDF. How it is done:
(§1) The cells were seeded in 96-well plates (Nunc) at a density of 3,500 cells/well (HCT116 and MCF-7) and 3,000 cells/well (NHDF) and incubated at 37° C for 24 h. The assay was performed following a 96 h incubation with varying concentrations of the compounds that were being tested. Then, 20 µL of CellTiter 96® AQueous One Solution-MTS (Promega) was added to each well (with 100 µL DMEM without phenol red) and incubated for 1 h at 37° C. The optical densities of the samples were analyzed at 490 nm using a multi-plate reader (Synergy 4, Bio Tek). Results were expressed as a percentage of the control and calculated as the inhibitory concentration (IC50) values (using GraphPad Prism 5). The IC50 parameter was defined as the compound concentration that was necessary to reduce the proliferation of cells to 50% of the untreated control. Each individual compound was tested in triplicate in a single experiment with each experiment being repeated three or four times.
(§2) The HCT116 and MCF-7 cells were seeded in 96-well plates (Nunc) at a density of 3,500 cells/well and incubated at 37° C for 24 h. The MTS assay was performed following a 96 h incubation with varying concentrations of the tested compounds. Additionally, a 20 µM solution of CuSO4, FeSO4 or FeCl3 was added into wells with the tested compounds. The results were expressed as a percentage of the control and calculated as the inhibitory concentration (IC50) values using GraphPad Prism 5. Each individual compound was tested in triplicate in a single experiment with each experiment being repeated three times.

For the next series, the system named is CAT. Nature of the series: mRNA expression (Real-Time PCR) of CAT. The note with it: HCT116, TSC 1 µM, after the first 12 h. Type of series: cell-based, human. How it is done: (§3) The HCT116 cells were seeded in 3 cm Petri dishes (Nunc) at a density of 0.5·10^6 cells/well and incubated overnight. Next, the medium was removed and solutions of TSC (1 μM) and DOX (5 μM) were added. After 12 or 24 h, total RNA was isolated from the cells using TRIzol Reagent (Ambion) according to the manufacturer’s instructions. cDNA synthesis was performed with 5 μg of total RNA using a GoScript™ Reverse Transcriptase kit (Promega) and Oligo(dT)23 Primers (Sigma). The Real-Time PCR was performed with a CTX96 Touch™ Real-Time PCR Detection System (Biorad) in a 20 μL reaction volume. The reaction consisted of PowerUp™ SYBR® Green Master Mix (Applied Biosystems), a primer pair mix (0.5 μM each) and 1 μL of cDNA. All primer pair sequences were purchased from Sigma-Aldrich and are listed in Supplementary Table 2. The experiment was performed under the following conditions: initial denaturation at 95° C for 120 sec; followed by 40 denaturation cycles at 95° C, 15 sec; annealing (primer-specific temperature for 30 sec) and extension at 72° C for 60 sec. Data was analyzed based on a comparison of the expression of the target genes to a reference gene – β-actin, using the 2^–ΔΔCT method. The experiments were performed at least three times.
(Quantitative PCR measures a nucleic acid by following its amplification.)

The test system of series [1] is calf-thymus DNA (CT-DNA). In words: Intercalation, absorption spectra with CT-DNA. Format: binding. The conditions noted are these: for % hypochromism / Changes in absorbance / Δε: bound to CT-DNA; for blue/red shift: wavelengths of maximum absorption, compound alone vs DNA-bound. How it is done: For the DNA binding studies, Calf-thymus DNA (CT-DNA) was purchased from Sigma Aldrich. The lyophilized CT-DNA was dissolved in 10 mM Tris-HCl, pH 7.9, mixed gently and left overnight at 4° C. The purity of the CT-DNA solution was determined by measuring the ratio of UV absorbance at 260 and 280 nm. […] Then, the concentration of CT-DNA was determined from the absorbance at 260 nm using an extinction coefficient of 6600 M^–1cm^–1. The tested TSC and DOX were dissolved in DMSO to a concentration of 8.35 mM, which was then used as the stock solution for preparing the various concentrations (25, 12.5, 6 and 3 µM) in 1 mL in 10 mM of Tris-HCl (pH 7.9). Afterwards, 18 µM CT-DNA was added to the prepared solutions, which were incubated for 1.5 h at 37° C with occasional vortexing. The absorption spectra were measured using a Hitachi U-2900 spectrophotometer in range of 200–500 nm. All absorption spectra were imported and compared in OriginPro 8.0.

The next series relates to p21. Nature of the series: Western blot of p21. Format: cell-based, human. The conditions noted are these: HCT116, 1 µM. As for the experimental part:
(§4) The HCT116 cells were seeded in 3 cm Petri dishes (Nunc) at a density of 0.5·10^6 cells/well and incubated overnight. The next day, solutions of TSC (1 μM) and DOX (5 μM) were added and the cells incubated for 24 or 48 h. Cells were harvested by trypsinization and washed with cold PBS. Next, the cells were centrifuged and suspended in an RIPA buffer (Thermo Scientific) containing Halt Protease Inhibitor Cocktail (Thermo Scientific), Halt Phosphatase Inhibitor Cocktail (Thermo Scientific) along with 0.5 M EDTA and lysed for 20 min on ice. Then, the lysates were sonicated, centrifuged at 10,000 rpm for 10 min at 4° C and the supernatants were collected for further analysis. The protein concentration was determined using a Micro BCA™ Protein Assay Kit (Thermo Scientific) according to the manufacturer’s instructions. Equal amounts of the proteins (20 μg) were electrophoresed on SDS-Page gels and transferred onto a nitrocellulose membranes. The membranes were blocked in 5% non-fat milk prepared in PBS containing 0.1% Tween-20 (TPBS) for 1 h. After blocking, the membranes were incubated with specific primary antibodies: cdc2 (#POH1, Cell Signaling), p21^Waf1/Cip1 (#12D1, Cell Signaling), p53 (#1C12, Cell Signaling) and β-Actin (#8H10D10, Cell Signaling) overnight at 4° C, then washed and incubated with horseradish peroxidase (HRP)-conjugated secondary antibodies for 1h at room temperature. All of antibodies were diluted 1:1000 in 5% milk in TPBS. Finally, the membranes were washed and incubated with a SuperSignal™ West Pico Chemiluminescent Substrate (Thermo Scientific). The chemiluminescence signals were captured using a ChemiDoc™ XRS+ System (BioRad). The experiments were performed at least three times. Densitometric analysis was performed using ImageJ 1.41 software (Wayne Rasband, National Institutes of Health, USA).
(In general: In western blotting, separated proteins are transferred to a membrane and probed.)

For another series, the system named is MCF-7. In words: MTS antiproliferative assay, MCF-7 (with or without added metal ions). Format: cell-based, human. The note with it: for Selectivity index, calculated for MCF-7: versus NHDF. How it is done: as §1, §2
For a further series, the system named is NHDF. Nature of the series: MTS cytotoxicity assay, normal fibroblasts. Type of series: cell-based, human. The note with it: 96 h incubation. How it is done:
as §1
In general terms: Tetrazolium dyes change colour on reduction, which living cells bring about.

Another series relates to cdc2. In words: Western blot of cdc2. Type of series: cell-based, human. The conditions noted are these: HCT116, 1 µM. How it is done:
as §4

A further series has as its system MnSOD. In words: mRNA expression (Real-Time PCR) of MnSOD. Type of series: cell-based, human. The conditions noted are these: HCT116, TSC 1 µM, 12 or 24 h. As for the experimental part: as §3
For series [2], the system named is calf-thymus DNA (CT-DNA). Also on record: method as in PMID 26599982. The note with it: cited from earlier work.
The mark [3] stands for this setting: Homo sapiens, HCT-116, 96 h, 20 µM CuSO4 added, read-out: Activity - IC50 HCT116+ Cu^2+.
Setting [4] is: Homo sapiens, HCT-116, 96 h, 20 µM FeCl3 added, read-out: Activity - IC50 HCT116+ Fe^3+.
Setting [5] is: Homo sapiens, HCT-116, 96 h incubation, MTS, read-out: Activity - IC50 HCT116.
The mark [6] stands for this setting: Homo sapiens, MCF7, 96 h, 20 µM CuSO4 added, read-out: Activity - IC50 MCF-7+ Cu^2+.
Where [7] appears, read: Homo sapiens, MCF7, 96 h, 20 µM FeCl3 added, read-out: Activity - IC50 MCF-7+ Fe^3+.
[8] abbreviates: Homo sapiens, MCF7, 96 h incubation, MTS, read-out: Activity - IC50 MCF-7.

SMILES strings stand for the structures. Entries after “also recorded” stand apart in the source; their conditions may differ. Where two headings read alike, the source gives them in different places.

The values below come from publication PMC5915149, “The role of oxidative stress in activity of anticancer thiosemicarbazones” (Oncotarget, 2018).

As a reminder, the IC50 is the concentration that gives 50% inhibition.

As to `FC(F)(F)c1cnc(N2CCN(C(=S)NN=Cc3ccc4ccccc4n3)CC2)c(Cl)c1` [Compound 1c], the IC50 with HCT116 (96 h, 20 µM CuSO4 added, read-out: Activity - IC50 HCT116+ Cu^2+) was found to be 7.19 ± 1.84 nM; in the series with HCT116 (96 h, 20 µM FeCl3 added, read-out: Activity - IC50 HCT116+ Fe^3+), 70.8 ± 7.28 nM; in the series with HCT116 (96 h incubation, MTS, read-out: Activity - IC50 HCT116), 72.1 ± 9.4 nM; in the series on MCF-7 (96 h, 20 µM CuSO4 added, read-out: Activity - IC50 MCF-7+ Cu^2+), 4.48 ± 1.18 nM; in the series with MCF-7 (96 h, 20 µM FeCl3 added, read-out: Activity - IC50 MCF-7+ Fe^3+), 39.1 ± 6.51 nM; in the series with MCF-7 (96 h incubation, MTS, read-out: Activity - IC50 MCF-7), 17.2 ± 2.71 nM. In addition, in the series on NHDF, the half-maximal inhibitory concentration (IC50) amounted to 17100 nM. In addition, in the series with HCT116 (HCT116 cells, 20 µM CuSO4), the “improvement in cytotoxicity after interacting with Cu^2+” value is listed as “more than a ten-fold increase”. Moreover, in the series with CAT, the “mRNA expression of CAT” value is recorded as “higher”. The “% hypochromism” value in the series with calf-thymus DNA (CT-DNA) [1] amounted to 22.6%. For the same molecule, in the series on calf-thymus DNA (CT-DNA) [1], the Changes in absorbance entry is given as “hypochromism”. The molecule also came in with a Δε in the series with calf-thymus DNA (CT-DNA) [1] of 2695.6 M⁻¹ cm⁻¹. The blue/red shift in the series on calf-thymus DNA (CT-DNA) [1] was 4 nm. In addition, the “expression of p21 protein (densitometric analysis)” value in the series on p21 is listed as “marked up-regulation”.
For the molecule `Fc1ccc(N2CCN(C(=S)NN=Cc3ccc4ccccc4n3)CC2)cc1` [Compound 1b, 4-(4-fluorophenyl)-N’-[(quinolin-2-yl)methylidene]piperazine-1-carbothiohydrazide], in the series on cdc2, the “expression of cdc2 protein (densitometric analysis)” value is reported as “lowest values; also recorded: strongest decreasing effect”. Besides, the half-maximal inhibitory concentration (IC50) in the series with HCT116 (setting [3]) came to 19.7 ± 0.53 nM; with HCT116 (setting [4]), 72.4 ± 12.9 nM; in the series with HCT116 (setting [5]), 62.2 ± 8.95 nM; in the series on MCF-7 (setting [6]) it was 3.78 ± 0.88 nM; in the series with MCF-7 (setting [7]) it was 25 ± 2.16 nM; with MCF-7 (setting [8]), 31.4 ± 3.38 nM. The IC50 with NHDF (Homo sapiens, NHDF) turned out to be 114 ± 10.3 nM. The “Selectivity index, calculated for HCT116” value in the series on HCT116 was 1.8. Further, the “% hypochromism” value in the series with calf-thymus DNA (CT-DNA) [1] was determined as 24.2%. Also, the Changes in absorbance entry in the series with calf-thymus DNA (CT-DNA) [1] is reported as “hypochromism”. The same molecule yielded a Δε in the series with calf-thymus DNA (CT-DNA) [1] of 2313.3 M⁻¹ cm⁻¹. Further, the blue/red shift in the series with calf-thymus DNA (CT-DNA) [1] was 10 nm. In addition, the “expression of p21 protein (densitometric analysis)” value in the series with p21 is “increased p21 level, but in a lesser degree”. The “improvement in cytotoxicity after interacting with Cu^2+” value with MCF-7 (MCF-7 cells, 20 µM CuSO4) is given as “eight-fold”. In addition, the “Selectivity index, calculated for MCF-7” value with MCF-7 was 3.6. The “mRNA expression of MnSOD” value with MnSOD is given as “large drop”.
On to `COc1cccc2c1C(=O)c1c(O)c3c(c(O)c1C2=O)C[C@@](O)(C(=O)CO)C[C@@H]3O[C@H]1C[C@H](N)[C@H](O)[C@H](C)O1` [DOX, doxorubicin, reference compound], for which the IC50 with HCT116 (setting [3]) is 62.5 ± 8.24 nM; in the series on HCT116 (setting [4]) it was 84.8 ± 11.2 nM; in the series on HCT116 (setting [5]), 91 ± 6.96 nM; in the series on MCF-7 (setting [6]), 336 ± 65.3 nM; with MCF-7 (setting [7]), 414 ± 59 nM; in the series with MCF-7 (setting [8]), 405 ± 38 nM. Also, the IC50 in the series with NHDF (Homo sapiens, NHDF) was found to be 137 ± 26 nM. In the series with HCT116, the “Selectivity index, calculated for HCT116” value is on record as 1.5. The “% hypochromism” value in the series with calf-thymus DNA (CT-DNA) [2] (bound to CT-DNA) was 34.2%; in the series with calf-thymus DNA (CT-DNA) [2] (bound to CT-DNA, listed as doxorubicin), “about 34.2%”. In the series with calf-thymus DNA (CT-DNA) [2] (bound to CT-DNA), the Changes in absorbance entry is “hypochromism”. For the same molecule, the Δε in the series with calf-thymus DNA (CT-DNA) [2] (bound to CT-DNA) was 3235.6 M⁻¹ cm⁻¹. Moreover, in the series with calf-thymus DNA (CT-DNA) [2] (wavelengths of maximum absorption, compound alone vs DNA-bound), the blue/red shift is given as 10 nm. The “Selectivity index, calculated for MCF-7” value with MCF-7 is 0.3.
